ChEMBL document CHEMBL5321229, “Conformationally locked sugar derivatives and analogues as potential neuraminidase inhibitors” (Eur J Med Chem, 2023)

Columns and labels:
Neuraminidase = Neuraminidase (Influenza A virus, UniProt B4URF0); assay: Inhibition of influenza A virus neuraminidase
Influenza A virus [1] = assay: Antiviral activity against oseltamivir sensitive wild type Influenza A virus A/Brisbane/59/2007 infected infected in dog MDCK cells assessed as inhibition of viral growth incubated for 4 days by neutral red dye-based assay; format: functional; settings: A/Brisbane/59/2007, MDCK, 96 h, time 4 day, read-out: ED50 (the source's name)
[2] = Inhibition of influenza A virus A/Anhui/1/2005 H5N1 using MUNANA as substrate preincubated for 45 mins followed by substrate addition by fluorescence based assay
[3] = Inhibition of influenza A virus H5N1 (A/Anhui/2005) neuraminidase using fluorogenic MUNANA as substrate
[4] = Inhibition of influenza A virus A/Singapore/157 neuraminidase using 2'-(4-methylumbelliferyl)-alpha-D-acetylneuraminic acid as substrate incubated for 10 to 30 mins by fluorescence-based assay
[5] = Inhibition of influenza B virus B/Victoria/70 neuraminidase using 2'-(4-methylumbelliferyl)-alpha-D-acetylneuraminic acid as substrate incubated for 10 to 30 mins by fluorescence-based assay
Influenza A virus [6] = assay: Antiviral activity against Influenza A virus; format: functional, organism-based
Influenza B virus = assay: Antiviral activity against Influenza B virus; format: functional, organism-based
[7] = Inhibition of hPIV-3 Haemagglutinin-neuraminidase infected in human red blood cells incubated for 90 mins by haemagglutination assay; format: cell-based, RBC; settings: Human respirovirus 3, Erythrocyte, 1.5 h
[8] = Inhibition of Newcastle disease virus neuraminidase using 4-MUNeu5Ac as substrate assessed as reduction in neuraminidase activity incubated for 15 mins by spectrofluorometric analysis
[9] = target: Neuraminidase (Influenza A virus (A/Puerto Rico/8/1934(H1N1)), UniProt P03468); assay: Binding affinity to influenza A virus H1N1 (A/Norway/1758/07) neuraminidase using MUNANA as substrate assessed as inhibition constant
Chain of Neuraminidase (Influenza A virus (A/Puerto Rico/8/1934(H1N1)), UniProt P03468) (P03468 whole entry): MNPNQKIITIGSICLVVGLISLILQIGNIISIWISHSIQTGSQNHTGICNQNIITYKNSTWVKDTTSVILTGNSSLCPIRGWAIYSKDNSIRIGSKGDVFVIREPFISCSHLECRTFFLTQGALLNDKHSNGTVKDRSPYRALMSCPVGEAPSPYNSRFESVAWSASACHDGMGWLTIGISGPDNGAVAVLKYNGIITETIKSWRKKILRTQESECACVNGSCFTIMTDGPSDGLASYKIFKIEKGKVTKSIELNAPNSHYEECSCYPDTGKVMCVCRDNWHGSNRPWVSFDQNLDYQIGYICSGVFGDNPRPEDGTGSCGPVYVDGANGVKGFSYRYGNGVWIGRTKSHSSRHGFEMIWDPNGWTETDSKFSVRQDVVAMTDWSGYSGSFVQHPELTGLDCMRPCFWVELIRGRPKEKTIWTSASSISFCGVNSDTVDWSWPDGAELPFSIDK

Influenza A virus [10] = assay: Antiviral activity against influenza A virus A/Hong Kong/1/68 (HK1, H3N2) infected in dog MDCK cells assessed as cytopathic effect; format: functional, organism-based
[11] = Inhibition of influenza A virus H12N5 A/Duck/Alberta/60/1976 neuraminidase using MUNANA as substrate incubated for 30 mins followed by substrate addition by fluorescence based assay
[12] = target: Neuraminidase (Influenza A virus (A/Memphis/1/1971(H3N2)), UniProt P03471); assay: Inhibition of influenza A virus H3N2 (A/Moscow/10/99) neuraminidase using MUNANA as substrate preincubated for 30 mins followed by substrate addition by fluorescence-based assay
Chain of Neuraminidase (Influenza A virus (A/Memphis/1/1971(H3N2)), UniProt P03471) (P03471 whole entry): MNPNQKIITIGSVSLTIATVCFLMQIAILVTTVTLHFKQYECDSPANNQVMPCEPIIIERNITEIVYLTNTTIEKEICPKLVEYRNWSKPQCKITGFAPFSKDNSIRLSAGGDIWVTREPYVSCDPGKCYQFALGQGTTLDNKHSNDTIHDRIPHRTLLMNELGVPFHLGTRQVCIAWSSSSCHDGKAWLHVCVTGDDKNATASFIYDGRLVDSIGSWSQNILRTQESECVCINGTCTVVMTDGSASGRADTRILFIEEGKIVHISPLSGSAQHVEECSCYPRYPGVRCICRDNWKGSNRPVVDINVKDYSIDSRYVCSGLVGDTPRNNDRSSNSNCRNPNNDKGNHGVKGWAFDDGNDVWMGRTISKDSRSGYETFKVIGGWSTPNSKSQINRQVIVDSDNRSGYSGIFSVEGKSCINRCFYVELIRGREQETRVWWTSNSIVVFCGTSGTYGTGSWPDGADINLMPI

[13] = Binding affinity to influenza A virus A/HongKong/156/97 (H5N1) neuraminidase using fluorogenic MUN as substrate assessed as inhibition constant
[14] = Inhibition of Influenza A virus H7N9 VLP neuraminidase using MUNANA as substrate

Chain of Neuraminidase (B4URF0 whole entry): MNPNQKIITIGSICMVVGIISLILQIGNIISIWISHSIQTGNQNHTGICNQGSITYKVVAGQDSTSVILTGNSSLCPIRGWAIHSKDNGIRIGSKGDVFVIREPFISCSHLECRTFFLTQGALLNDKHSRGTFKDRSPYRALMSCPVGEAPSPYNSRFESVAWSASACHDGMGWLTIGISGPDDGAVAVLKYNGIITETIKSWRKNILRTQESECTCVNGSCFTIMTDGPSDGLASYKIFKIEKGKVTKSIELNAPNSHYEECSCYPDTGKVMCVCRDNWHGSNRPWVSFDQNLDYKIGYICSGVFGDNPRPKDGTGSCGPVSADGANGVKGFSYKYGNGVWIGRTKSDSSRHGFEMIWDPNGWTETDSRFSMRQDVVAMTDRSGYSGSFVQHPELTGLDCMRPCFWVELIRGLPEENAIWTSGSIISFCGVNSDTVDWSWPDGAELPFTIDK

SMILES: CO[C@@H]([C@@H]1OC(C(=O)O)=C[C@H](NC(=N)N)[C@H]1NC(C)=O)[C@H](O)CO
- IC50 (Neuraminidase): 0.0176 µM

SMILES: CCC(CC)O[C@@H]1CC(C(=O)O)=C[C@H](N)[C@H]1NC(C)=O
- EC50 (Influenza A virus [1]): 12 µM

SMILES: CCC(CC)O[C@@H]1C2C([C@@H]2C(=O)O)[C@@H](NCc2ccccc2)[C@H]1NC(C)=O (stereo partly specified)
- IC50 [2]: 10 µM

SMILES: CCC(CC)O[C@@H]1C=C(C(=O)O)C[C@H](NS(C)(=O)=O)[C@H]1NC(C)=O
- IC50 [3]: 3.5 µM

SMILES: CCC(CC)[C@H](NC(C)=O)[C@@H]1C[C@@H](C(=O)O)C[C@H]1N=C(N)N
- IC50 [4]: < 0.01 µM
- IC50 [5]: < 0.01 µM

SMILES: CCOC(=O)NC(=N)N[C@H]1C=C(C(=O)O)O[C@@H]([C@H](O)[C@H](O)CO)[C@@H]1NC(C)=O
- IC50 (Influenza A virus [6]): 4.59 µM
- IC50 (Influenza B virus): 4.59 µM

SMILES: CCC(CC)O[C@@H]1C2C([C@@H]2C(=O)O)[C@@H](NCc2ccc(-c3ccccc3)cc2)[C@H]1NC(C)=O (stereo partly specified)
- IC50 [2]: 10 µM

SMILES: CC(C)C(=O)N[C@H]1[C@H]([C@H](O)[C@H](O)CO)OC(C(=O)O)=C(n2cc(-c3ccccc3C(=O)O)nn2)[C@@H]1O
- IC50 [7]: 3.9 µM

SMILES: CC(=O)N[C@H]1[C@H]([C@H](O)[C@H](O)CO)OC(C(=O)O)=C[C@@H]1NC(=N)NO
- IC50 (Influenza A virus [6]): 4.59 µM
- IC50 (Influenza B virus): 4.59 µM

SMILES: CCCCCCCCO[C@@H]([C@@H]1OC(C(=O)O)=C[C@H](N=C(N)N)[C@H]1NC(C)=O)[C@H](O)CO
- IC50 (Neuraminidase): 0.0455 µM

SMILES: O=C(O)C1=C[C@H](NC(=O)C(F)(F)F)[C@H](NC(=O)C(F)(F)F)[C@H]([C@@H](O)[C@H](O)CO)O1
- IC50 [8]: 0.03 µM

SMILES: CCO[C@@H]([C@@H]1OC(C(=O)O)=C[C@H](N=C(N)N)[C@H]1NC(C)=O)[C@H](O)CO
- IC50 (Neuraminidase): 0.0733 µM

SMILES: CCC(CC)O[C@@H]1C=C(P(=O)(O)O[C@H]2[C@@H](O)[C@@H](CO)O[C@@H](OC)[C@@H]2O)C[C@H](N)[C@H]1NC(C)=O
- Ki [9]: 0.00029 µM

SMILES: [N-]=[N+]=N[C@H]1C=C(C(=O)O)O[C@@H]([C@@H](O)[C@H](O)CO)[C@H]1NC(=O)C(F)(F)C(F)(F)C(F)(F)F
- IC50 [8]: 0.03 µM

SMILES: CCCO[C@@H]([C@@H]1OC(C(=O)O)=C[C@H](N=C(N)N)[C@H]1NC(C)=O)[C@H](O)CO
- IC50 (Neuraminidase): 0.0818 µM

SMILES: CCC(CC)O[C@@H]1C=C(C(=O)O)[C@@H](n2cc(C(O)CC)nn2)[C@H](N)[C@H]1NC(C)=O (stereo partly specified)
- IC50 (Influenza A virus [10]): 0.1 µM

SMILES: CCC(CC)O[C@@H]1C2C([C@@H]2C(=O)O)[C@@H](O)[C@H]1NC(C)=O (stereo partly specified)
- IC50 [2]: 10 µM

SMILES: CCCCCO[C@@H]([C@@H]1OC(C(=O)O)=C[C@H](N=C(N)N)[C@H]1NC(C)=O)[C@H](O)CO
- IC50 (Neuraminidase): 0.0356 µM

SMILES: CC(=O)N[C@H]1[C@H]([C@H](O)[C@H](O)CO)OC(C(=O)O)=C[C@@H]1NC(=N)NN
- IC50 (Influenza A virus [6]): 4.59 µM
- IC50 (Influenza B virus): 4.59 µM

SMILES: CNC(=N)N[C@H]1C=C(C(=O)O)O[C@@H]([C@H](O)[C@H](O)CO)[C@@H]1NC(C)=O
- IC50 (Influenza A virus [6]): 4.59 µM
- IC50 (Influenza B virus): 4.59 µM

SMILES: Cc1ccc(C(=O)N[C@H]2C=C(C(=O)O)O[C@@H]([C@@H](O)[C@H](O)CO)[C@H]2NC(=O)C(F)(F)F)cc1
- IC50 [8]: 0.03 µM

SMILES: CCC(CC)O[C@@H]1CC(C(=O)O)=C[C@H](NC(=N)N)[C@H]1NC(C)=O
- EC50 (Influenza A virus [1]): 3.9 µM

SMILES: CCC(CC)O[C@@H]1C=C(C(=O)O)C[C@H](n2nncc2-c2cccc(N)c2)[C@H]1NC(C)=O
- IC50 [11]: 0.045 µM
- IC50 [12]: 0.019 µM

SMILES: CCC(CC)O[C@@H]1C=C(P(=O)(O)OC[C@H]2O[C@@H](OC)[C@H](O)[C@@H](O)[C@H]2O)C[C@H](N)[C@H]1NC(C)=O
- Ki [9]: 0.00074 µM

SMILES: CCCCCCCCCCCCO[C@@H]([C@@H]1OC(C(=O)O)=C[C@H](N=C(N)N)[C@H]1NC(C)=O)[C@H](O)CO
- IC50 (Neuraminidase): 0.0992 µM

SMILES: [N-]=[N+]=N[C@H]1C=C(C(=O)O)O[C@@H]([C@@H](O)[C@H](O)CO)[C@H]1NC(=O)C(F)(F)F
- IC50 [8]: 0.03 µM

SMILES: CC(=O)N[C@H]1[C@H]([C@H](O)[C@H](O)CO)OC(C(=O)O)=C(C/C=C/c2cccc3ccccc23)[C@@H]1O
- Ki [13]: 9.3 µM

SMILES: N=C(N)N[C@@H]1[C@@H](NC(=O)C(F)(F)F)[C@H]([C@H](OC(=O)NCCn2cc(COC[C@H]3O[C@@H](O[C@H]4[C@H](OCc5cn(CCNC(=O)O[C@@H]([C@@H]6O[C@@](F)(C(=O)O)[C@H](F)[C@H](NC(=N)N)[C@H]6NC(=O)C(F)(F)F)[C@H](O)CO)nn5)[C@@H](OCc5cnnn5CCNC(=O)O[C@@H]([C@@H]5O[C@@](F)(C(=O)O)[C@H](F)[C@H](NC(=N)N)[C@H]5NC(=O)C(F)(F)F)[C@H](O)CO)[C@H](OCc5cn(CCNC(=O)O[C@@H]([C@@H]6O[C@@](F)(C(=O)O)[C@H](F)[C@H](NC(=N)N)[C@H]6NC(=O)C(F)(F)F)[C@H](O)CO)nn5)O[C@@H]4COCc4cn(CCNC(=O)O[C@@H]([C@@H]5O[C@@](F)(C(=O)O)[C@H](F)[C@H](NC(=N)N)[C@H]5NC(=O)C(F)(F)F)[C@H](O)CO)nn4)[C@H](OCc4cn(CCNC(=O)O[C@@H]([C@@H]5O[C@@](F)(C(=O)O)[C@H](F)[C@H](NC(=N)N)[C@H]5NC(=O)C(F)(F)F)[C@H](O)CO)nn4)[C@@H](OCc4cn(CCNC(=O)O[C@@H]([C@@H]5O[C@@](F)(C(=O)O)[C@H](F)[C@H](NC(=N)N)[C@H]5NC(=O)C(F)(F)F)[C@H](O)CO)nn4)[C@H]3OCc3cn(CCNC(=O)O[C@@H]([C@@H]4O[C@@](F)(C(=O)O)[C@H](F)[C@H](NC(=N)N)[C@H]4NC(=O)C(F)(F)F)[C@H](O)CO)nn3)nn2)[C@H](O)CO)O[C@@](F)(C(=O)O)[C@@H]1F
- IC50 [14]: 0.0306 µM

SMILES: CC(=O)N[C@H]1[C@H]([C@H](O)[C@H](O)CO)OC(C(=O)O)=C[C@@H]1NC(=N)N[N+](=O)[O-]
- IC50 (Influenza A virus [6]): 4.59 µM
- IC50 (Influenza B virus): 4.59 µM
